What all share (format): biochemical
The target in one experiment is CDK2/cyclinA (h) (Homo sapiens, UniProt P24941). The experiment can be described thus: Kinase profiling C3.3 CDK2/cyclinA human. The following applies: test concentration of 10^−6 M. The method in brief:
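Human CDK2/cyclinA (5-10 mU) phosphorylates 0.1 mg/ml histone H1 in 8 mM MOPS pH 7.0, EDTA, 10 mM Mg acetate with [γ-33P]ATP, 40 min at room temperature. After phosphoric acid stop, filter-bound 33P counted by scintillation.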

A further experiment concerns the target CDK3/cyclinE (h) (Homo sapiens, UniProt Q00526). The experiment can be described thus: Kinase profiling C3.5 CDK3/cyclinE human. The following applies: test concentration of 10^−6 M. The method in brief:
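Human CDK3/cyclinE (5-10 mU) phosphorylated 0.1 mg/ml histone H1 in 8 mM MOPS pH 7.0, 0.2 mM EDTA and 10 mM MgAcetate with [γ-33P]ATP. Reaction ran 40 min at room temperature and was stopped with phosphoric acid. Substrate-bound radioactivity was captured on P30 filtermat and measured by scintillation counting.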

A further experiment has as its target CDK1/cyclinB (h) (Homo sapiens, UniProt P06493). The experiment in a line: Kinase profiling C3.2 CDK1/cyclinB human. The following applies: test concentration of 10^−6 M. The method in brief: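 Radiometric filter-binding assay: human CDK1/cyclinB (5-10 mU) with 0.1 mg/ml histone H1 substrate and [γ-33P]ATP in 8 mM MOPS pH 7.0, 10 mM Mg acetate, 40 min at room temperature. Stopped with phosphoric acid; substrate-bound 33P counted on P30 filtermat by scintillation.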

In another experiment the target is GSK-3α (Homo sapiens, UniProt P49840). The experiment can be described thus: GSK-3 kinase assay (C1), GSK-3α. The following applies: 1 μM ATP, read-out: C1 Score α. The method in brief:
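Radiometric SPA at room temperature in 25 mM Tris pH 7.4 with 10 mM MgCl2, 1 mM DTT, 5.7 ng/μl GSK-3β or 0.25 ng/μl GSK-3α, 5 μM biotinylated CREB peptide and 1 μM ATP plus ^33P-ATP. Stopped after 1 h; IC50 from dose-response versus no-compound control, reported as pIC50 score bands.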

The target of another experiment is CDK2/cyclinE (h) (Homo sapiens, UniProt P24941). The experiment in a line: Kinase profiling C3.4 CDK2/cyclinE human. The following applies: test concentration of 10^−6 M. Put shortly: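 Radiometric filter-binding assay: 5-10 mU enzyme with 0.1 mg/ml histone H1 in 8 mM MOPS pH 7.0, 0.2 mM EDTA, 10 mM Mg acetate and [γ-33P]ATP. Incubated 40 min at room temperature, stopped with phosphoric acid. Substrate-bound 33P counted on P30 filtermat.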

Another experiment addresses CDK5/p35 human (Homo sapiens, UniProt Q00535). The experiment can be described thus: Kinase profiling C3.6 CDK5/p35 human. The settings on record: CDK5/p35, test concentration of 10^−6 M. The method in brief: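 Radiometric filter-binding assay: human CDK5/p35 (5-10 mU) with 0.1 mg/ml histone H1 substrate in 8 mM MOPS pH 7.0, 0.2 mM EDTA, 10 mM Mg acetate and [γ-33P]ATP. Incubated 40 min at room temperature, stopped with phosphoric acid. Substrate 33P incorporation counted on P30 filtermat by scintillation.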

Where only a bound is given, the exact number is not on record here.

Sequence of CDK5/p35 human (Q00535 whole entry): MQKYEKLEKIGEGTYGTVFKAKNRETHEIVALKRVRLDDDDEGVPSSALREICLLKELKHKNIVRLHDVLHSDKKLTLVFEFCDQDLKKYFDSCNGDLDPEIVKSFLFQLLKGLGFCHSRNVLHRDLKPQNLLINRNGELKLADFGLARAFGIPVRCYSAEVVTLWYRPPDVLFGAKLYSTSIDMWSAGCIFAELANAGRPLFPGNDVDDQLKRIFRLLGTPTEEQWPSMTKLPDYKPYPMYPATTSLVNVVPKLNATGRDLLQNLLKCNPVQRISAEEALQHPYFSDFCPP
Sequence of CDK5/p35 human (Q15078 whole entry partner): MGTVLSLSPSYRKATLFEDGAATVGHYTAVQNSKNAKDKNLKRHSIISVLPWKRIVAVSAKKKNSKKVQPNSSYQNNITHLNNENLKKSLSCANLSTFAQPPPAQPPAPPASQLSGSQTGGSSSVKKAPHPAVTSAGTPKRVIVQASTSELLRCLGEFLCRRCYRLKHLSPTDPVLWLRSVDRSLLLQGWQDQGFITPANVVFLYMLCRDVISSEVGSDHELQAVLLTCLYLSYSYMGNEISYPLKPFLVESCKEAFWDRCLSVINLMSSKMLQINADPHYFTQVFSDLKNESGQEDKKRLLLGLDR
Sequence of CDK1/cyclinB (h) (P06493 whole entry): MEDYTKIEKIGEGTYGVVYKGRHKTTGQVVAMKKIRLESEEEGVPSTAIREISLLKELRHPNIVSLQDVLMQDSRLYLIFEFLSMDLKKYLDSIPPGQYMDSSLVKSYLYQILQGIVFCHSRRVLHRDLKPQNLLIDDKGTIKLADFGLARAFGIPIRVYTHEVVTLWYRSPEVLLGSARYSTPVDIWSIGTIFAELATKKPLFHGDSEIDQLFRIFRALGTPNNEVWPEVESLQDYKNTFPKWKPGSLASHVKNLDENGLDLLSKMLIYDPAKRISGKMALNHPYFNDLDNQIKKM
Sequence of CDK1/cyclinB (h) (P14635 whole entry partner): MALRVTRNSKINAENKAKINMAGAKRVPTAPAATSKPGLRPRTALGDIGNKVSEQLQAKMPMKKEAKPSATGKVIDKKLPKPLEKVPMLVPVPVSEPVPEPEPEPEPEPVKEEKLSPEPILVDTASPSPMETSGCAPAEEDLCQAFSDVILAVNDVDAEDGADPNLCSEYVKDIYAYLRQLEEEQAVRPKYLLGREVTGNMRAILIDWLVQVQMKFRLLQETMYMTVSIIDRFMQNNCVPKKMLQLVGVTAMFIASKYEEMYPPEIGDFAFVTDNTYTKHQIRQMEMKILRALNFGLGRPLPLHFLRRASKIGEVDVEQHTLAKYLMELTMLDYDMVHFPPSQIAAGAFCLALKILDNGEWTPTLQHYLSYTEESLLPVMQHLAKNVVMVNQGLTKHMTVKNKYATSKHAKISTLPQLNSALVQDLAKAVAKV
Sequence of GSK-3α (P49840 whole entry, species assumed): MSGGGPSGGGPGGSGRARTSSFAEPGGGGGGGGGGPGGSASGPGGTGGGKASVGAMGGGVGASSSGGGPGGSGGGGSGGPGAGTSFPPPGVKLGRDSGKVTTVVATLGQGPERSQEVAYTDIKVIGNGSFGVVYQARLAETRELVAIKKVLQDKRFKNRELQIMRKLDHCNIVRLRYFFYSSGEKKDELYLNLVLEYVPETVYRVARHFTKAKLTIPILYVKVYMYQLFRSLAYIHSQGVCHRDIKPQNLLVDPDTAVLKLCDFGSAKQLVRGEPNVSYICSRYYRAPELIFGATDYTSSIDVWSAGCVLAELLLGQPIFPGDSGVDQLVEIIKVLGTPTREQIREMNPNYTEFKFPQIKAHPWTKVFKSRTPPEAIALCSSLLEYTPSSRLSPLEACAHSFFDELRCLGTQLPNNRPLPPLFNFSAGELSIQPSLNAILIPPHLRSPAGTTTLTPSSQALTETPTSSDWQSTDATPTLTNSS

For `CN1CC(=O)NCCCc2cc(ccn2)-c2ncnc(n2)Nc2cccc(c2)C1` [Compound 10], the C3.3 score on CDK2/cyclinA (h) is given as 4 (Score 4 = >80% inhibition). The C3.5 score on CDK3/cyclinE (h) is listed as 4 (Score 4 = >80% inhibition). Further, the C3.2 score at CDK1/cyclinB (h) is 4 (Score 4 = >80% inhibition). For the same molecule, the IC50 at GSK-3α is less than 10 nM. For the same molecule, the C3.4 score on CDK2/cyclinE (h) is on record as 4 (Score 4 = >80% inhibition). For the same molecule, the C3.6 score at CDK5/p35 human is 4 (Score 4 = >80% inhibition).

`O=C1NCCCc2cc(ccn2)-c2ncnc(n2)Nc2cccc(c2)CN2C[C@H](O)C[C@@H]12` [Compound 14]: at CDK2/cyclinA (h), the C3.3 score was 4 (Score 4 = >80% inhibition). Moreover, the C3.5 score at CDK3/cyclinE (h) was 2 (Score 2 = 30-60% inhibition). Besides, at CDK1/cyclinB (h), the C3.2 score is 2 (Score 2 = 30-60% inhibition). The IC50 on GSK-3α lay in the range of 10 to 100 nM. Moreover, the C3.4 score on CDK2/cyclinE (h) was 1 (Score 1 = 10-30% inhibition). Besides, on CDK5/p35 human, the C3.6 score was 1 (Score 1 = 10-30% inhibition).

With `O=C1CN2CCN(CC2)Cc2cccc(c2)Nc2ncnc(n2)-c2ccnc(c2)CCCN1` [Compound 36], the C3.3 score at CDK2/cyclinA (h) is listed as 4 (Score 4 = >80% inhibition). Also, the C3.5 score on CDK3/cyclinE (h) is reported as 3 (Score 3 = 60-80% inhibition). Also, the C3.2 score at CDK1/cyclinB (h) is recorded as 4 (Score 4 = >80% inhibition). At GSK-3α, the IC50 is less than 10 nM. Further, the C3.4 score on CDK2/cyclinE (h) is on record as 4 (Score 4 = >80% inhibition). Besides, the C3.6 score on CDK5/p35 human is 3 (Score 3 = 60-80% inhibition).

Consider `O=C1NCCCc2cc(ccn2)-c2ncnc(n2)Nc2cccc(c2)CN2CCCC1C2` (stereo not drawn) [Compound 15], for which, on CDK2/cyclinA (h), the C3.3 score is recorded as 2 (Score 2 = 30-60% inhibition). Further, the C3.5 score at CDK3/cyclinE (h) is given as 1 (Score 1 = 10-30% inhibition). In addition, the C3.2 score on CDK1/cyclinB (h) is on record as 1 (Score 1 = 10-30% inhibition). In addition, the IC50 at GSK-3α lay in the range of 10 to 100 nM. Besides, the C3.4 score on CDK2/cyclinE (h) is 2 (Score 2 = 30-60% inhibition). Besides, the C3.6 score on CDK5/p35 human is recorded as 1 (Score 1 = 10-30% inhibition).

Consider `CN1CC(=O)NCC#Cc2cc(ccn2)-c2ncnc(n2)Nc2cccc(c2)C1` [Compound 1], for which, on CDK2/cyclinA (h), the C3.3 score is listed as 4 (Score 4 = >80% inhibition). Also, the C3.5 score at CDK3/cyclinE (h) is 4 (Score 4 = >80% inhibition). Moreover, the C3.2 score at CDK1/cyclinB (h) is listed as 4 (Score 4 = >80% inhibition). Besides, at GSK-3α, the IC50 is less than 10 nM. For the same molecule, on CDK2/cyclinE (h), the C3.4 score is on record as 4 (Score 4 = >80% inhibition). On CDK5/p35 human, the C3.6 score was 4 (Score 4 = >80% inhibition).

The record behind these values is patent US8778919B2, “Cyclic anilino—pyridinotriazines” (Janssen Pharmaceutica NV, priority 2005, dated 2014).
